Data on 9 molecules can be found in ChEMBL document CHEMBL2412982, “A medicinal chemists' guide to the unique difficulties of lead optimization for tuberculosis” (2013).

The nature of experiment [1]: fT>MIC in Mycobacterium tuberculosis infected mouse. Type of experiment: functional.
The nature of experiment [2]: T>MIC in Mycobacterium tuberculosis infected mouse. Format: functional.
Experiment [3] can be described thus: fCmax/MIC in Mycobacterium tuberculosis infected mouse. Format: functional.
Experiment [4] in a line: fAUC/MIC in Mycobacterium tuberculosis infected mouse. Type of experiment: functional.
Experiment [5] is described as follows: Cmax/MIC in Mycobacterium tuberculosis infected mouse. Format: functional.
Experiment [6] in a line: AUC/MIC in Mycobacterium tuberculosis infected mouse. Format: functional, Plasma.

Turning to `COc1nc2ccc(Br)cc2cc1[C@@H](c1ccccc1)[C@@](O)(CCN(C)C)c1cccc2ccccc12` [BEDAQUILINE], the “fT>MIC” value in experiment [1] was determined as 0%. Further, the “%T>MIC” value in experiment [2] was 80%. Further, in experiment [3], the fCmax/MIC worked out at 0.1. For the same molecule, the fAUC/MIC in experiment [4] worked out at 1. Also, the Ratio in experiment [5] is 10. This molecule displayed a RatioAUC/MIC in experiment [6] of 100.
As for `CC(C)/N=c1\cc2n(-c3ccc(Cl)cc3)c3ccccc3nc-2cc1Nc1ccc(Cl)cc1` [CLOFAZIMINE], the “fT>MIC” value in experiment [1] stood at 0%. Also, the “%T>MIC” value in experiment [2] is 0%. Moreover, the fCmax/MIC in experiment [3] is listed as 0.02. The same molecule displayed a fAUC/MIC in experiment [4] of under 1. Further, the Ratio in experiment [5] turned out to be 1. The same molecule came in with a RatioAUC/MIC in experiment [6] of 20.
As for `CC[C@@H](CO)NCCN[C@@H](CC)CO` [ETHAMBUTOL], the “fT>MIC” value in experiment [1] is on record as 25%. In addition, the “%T>MIC” value in experiment [2] is given as 35%. In addition, the fCmax/MIC in experiment [3] was 8. Also, in experiment [4], the fAUC/MIC is 25. Further, the Ratio in experiment [5] stood at 11. In experiment [6], this molecule registered a RatioAUC/MIC of 33.
Turning to `NNC(=O)c1ccncc1` [ISONIAZID], the “fT>MIC” value in experiment [1] was found to be 60%. Also, in experiment [2], the “%T>MIC” value worked out at 80%. Moreover, in experiment [3], the fCmax/MIC was found to be 400. In addition, the fAUC/MIC in experiment [4] was 800. In addition, the Ratio in experiment [5] came to 660. In experiment [6], this molecule showed a RatioAUC/MIC of 1300.
For `OC(c1cc(C(F)(F)F)nc2c(C(F)(F)F)cccc12)C1CCCCN1` (centres undefined) [MEFLOQUINE], the “fT>MIC” value in experiment [1] is recorded as 0%. Besides, in experiment [2], the “%T>MIC” value came out at 0%. This molecule also showed a fCmax/MIC in experiment [3] of 0.1. In experiment [4], the fAUC/MIC is recorded as 1.6. The Ratio in experiment [5] amounted to 0.5. In addition, the RatioAUC/MIC in experiment [6] is given as 8.
With `COc1c(N2C[C@@H]3CCCN[C@@H]3C2)c(F)cc2c(=O)c(C(=O)O)cn(C3CC3)c12` [MOXIFLOXACIN], the “fT>MIC” value in experiment [1] is 80%. Besides, in experiment [2], the “%T>MIC” value came to 100%. The molecule further returned a fCmax/MIC in experiment [3] of 10. In experiment [4], this molecule had a fAUC/MIC of 53. Besides, the Ratio in experiment [5] is recorded as 17. Besides, in experiment [6], the RatioAUC/MIC came to 88.
`O=[N+]([O-])c1cn2c(n1)OC[C@@H](OCc1ccc(OC(F)(F)F)cc1)C2` [PRETOMANID]: the “fT>MIC” value in experiment [1] came to 21%. For the same molecule, the “%T>MIC” value in experiment [2] is 58%. This molecule yielded a fCmax/MIC in experiment [3] of 2. Further, the fAUC/MIC in experiment [4] is recorded as 16. The Ratio in experiment [5] was found to be 20. In experiment [6], this molecule registered a RatioAUC/MIC of 166.
With `NC(=O)c1cnccn1` [PYRAZINAMIDE], the “fT>MIC” value in experiment [1] is 19%. Further, the “%T>MIC” value in experiment [2] amounted to 25%. The molecule further displayed a fCmax/MIC in experiment [3] of 15. This molecule displayed a fAUC/MIC in experiment [4] of 21. Further, the Ratio in experiment [5] came out at 25. In experiment [6], the RatioAUC/MIC worked out at 35.
In the case of `CO[C@H]1/C=C/O[C@@]2(C)Oc3c(C)c(O)c4c(O)c(c(/C=N/N5CCN(C)CC5)c(O)c4c3C2=O)NC(=O)/C(C)=C\C=C\[C@H](C)[C@H](O)[C@@H](C)[C@@H](O)[C@@H](C)[C@H](OC(C)=O)[C@@H]1C` [RIFAMPIN], in experiment [1], the “fT>MIC” value is recorded as 100%. In experiment [2], the “%T>MIC” value stood at 100%. The molecule also gave a fCmax/MIC in experiment [3] of 20. Also, the fAUC/MIC in experiment [4] is reported as 300. The Ratio in experiment [5] stood at 100. For the same molecule, the RatioAUC/MIC in experiment [6] is on record as 1500.
